Measurements: EP4702986A1, “POLYPEPTIDE AND USE THEREOF” (Biocells (Beijing) Biotech Co., Ltd., priority 2023, dated 2024)
“Also recorded” adds a separate entry of the source. Numbered stars: 1 amine (or outer) side, 2 acyl side, 3 side chain; on linkers, the order of the positions; unused ones are H or OH. Square brackets hold non-standard residues; d marks the D form. Side chains are listed from the residue outwards. Peptide text beside a SMILES is read from it. * marks the point of attachment. ξ: configuration not given here. γGlu = O=C(O)[C@H](CCC(=O)[*:2])N[*:1]; ξ2Nal = NC(Cc1ccc2ccccc2c1)C(=O)O; Fumaroyl = O=C(O)/C=C/C(=O)*; Lauroyl = CCCCCCCCCCCC(=O)*; AEEA = NCCOCCOCC(=O)O

Tests used:
[1] = target: T1, human ETB receptor (Homo sapiens, UniProt P24530); assay: Determination of EC50 of polypeptides against human ETB receptor (IP-One Gq kit); type: cell-based; conditions: 293T-17 cells transfected with PCDNA3.1-hETB; read-out: hETBR agonist activity EC50/nM
T1 construct: expressed in transfected cells; host or cells: 293T-17 cells, transient transfection
T1 sequence (P24530 27-442): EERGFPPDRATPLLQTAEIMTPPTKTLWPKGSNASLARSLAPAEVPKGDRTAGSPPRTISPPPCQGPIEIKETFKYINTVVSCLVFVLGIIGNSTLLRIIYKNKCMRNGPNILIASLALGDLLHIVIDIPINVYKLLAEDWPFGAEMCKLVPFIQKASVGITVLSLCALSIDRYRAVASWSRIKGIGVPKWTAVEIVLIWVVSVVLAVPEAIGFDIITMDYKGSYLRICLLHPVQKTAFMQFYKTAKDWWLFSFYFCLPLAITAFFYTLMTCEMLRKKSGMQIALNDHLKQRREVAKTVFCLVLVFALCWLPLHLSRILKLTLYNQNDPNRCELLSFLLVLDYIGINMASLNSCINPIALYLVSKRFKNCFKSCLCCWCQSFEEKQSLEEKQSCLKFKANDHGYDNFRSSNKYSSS
Method: 293T-17 cells were seeded at a density of 650,000 cells per well in a 6-well plate and cultured overnight in an incubator at 37°C and 5% CO2. Afterward, the cells were transfected with an expression vector, PCDNA3.1-hETB which contained a human ETB receptor gene, at a plasmid concentration of 2.5 µg per well. The cells were further cultured for 48 hours, and green fluorescence expression was observed under a fluorescence microscope. The cells were then digested with trypsin and counted. The activity of compounds on the human ETB receptor was determined with the IP-One Gq kit from Cisbio Bioassays. The cells were suspended in Stim Buffer provided in the kit and the cell suspension was added to a 96-well detection plate at 7 µL cell suspension (containing 30,000 cells) per well. The polypeptides to be tested (prepared according to the Preparation Example of the invention) were diluted in Stim B to obtain a gradient of 11 concentration points. For each concentration point, the polypeptides to be tested were dissolved in Stim B to be at a concentration of 2×, and added at 7 µL to the test cells, while 7 µL of PBS solution was added to the cells in the negative control wells. The plate was sealed and incubated at 37°C for 1 hour in a cell culture incubator. Detection wells, positive control wells containing human endothelin ET1 (ET1: […] (C1-C15,C3-C11)), and PBS control wells were each added with 3 µL of IP1 d2 working solution and 3 µL of IP1 Tb cryptotate Antibody working solution. The plate was then sealed and incubated in the dark at room temperature (25°C±5°C) for 1 hour. The plate seal was removed, and the […] at 665 nm and 620 nm was measured with an ID5 microplate reader. The ratio of the acceptor emission signal to the donor emission signal, i.e., (signal at 665 nm/signal at 620 nm)×10^4, was calculated for each well. With F representing the average value of values of signal at 665 nm/signal at 620 nm for the test samples at various concentrations, a scatterplot was plotted, where the abscissa represented the F value, and the ordinate represented the logarithmic value of the peptide concentration. A curve was fitted with an appropriate method to calculate EC50 values of the polypeptides against the human ETB receptor. Another method was provided for fitting a curve where activation rate of the test polypeptides at each concentration relative to the positive control sample human endothelin ET1 was calculated first with the method in Example 1, and a scatterplot was plotted, where the abscissa represented the activation rate, and the ordinate represented the logarithmic value of the polypeptide concentration. A curve was fitted with an appropriate method to calculate the EC50 values of the polypeptides against the human ETB receptor.

[2] = in vivo; conditions: male, SD, rat, in vivo, iv
Method: (§1) In an experiment about acute toxicity of intravenous administration, male SD rats weighing 200-230 g were dosed in a range between 480 µg/Kg and 30 µg/Kg via tail vein injection in a descending order of dosage. […] Toxic response and mortality of the rats were preliminarily observed, and time of death and doses without mortality of the rats were recorded. The level of acute toxicity of the polypeptides was preliminarily determined based on the doses without mortality.

[3] = tested on: male SD rats; assay: in vivo; conditions: one animal per row, observed 24 hours
Method: as §1

[4] = tested on: male SD rats; conditions: male SD rats, subcutaneous, observed for 48 hours
Method: In an experiment about acute toxicity of subcutaneous administration, male SD rats weighing 200-230 g were dosed in a range between 60 µg/Kg and 960 µg/Kg. Observation was made for 48 hours after subcutaneous administration. Toxic response and mortality of the rats were preliminarily observed, and time of death and doses without mortality were recorded. The level of acute toxicity of the polypeptides was preliminarily determined based on the doses without mortality.

[5] = tested on: SD rats; conditions: rat, in vivo
Method: Male SD rats were anesthetized with isoflurane, and their neck hairs were shaved. A midline incision was made on the neck to expose the trachea. A ventilator and anesthesia machine for small animals were turned on, with concentration of an anesthetic gas set to 1.2, and its exit channel connected to an inlet of the ventilator. Tidal volume of the ventilator was set to 2 mL, the respiratory rate was 90 breaths/minute, and the respiratory ratio was 1:2. An outlet end of the ventilator was connected to a plastic hose, which was inserted into the rat's airway.
A machine and a software of a biological signal data acquisition and analysis system were turned on. One end of a data acquisition plate was connected to the plastic hose, and the other end was connected to a collector valve connected with a 1-mL syringe. The syringe was filled with heparinized saline, which was injected into the data acquisition plate to expel the air in the entire space until the heparinized saline flowed out from the other end of the plastic hose. The right common carotid arteries of the rats were isolated. A dead knot was made at the distal end and a slipknot at the proximal end of a right common carotid artery. A 1/2-sized incision was made in the artery between the knot with a microscissor, and the plastic hose with heparinized saline was inserted into the incision and fixed to prevent back-and-forth movement. The initial value of the blood pressure was set to zero with the zero-adjustment valve of the biological signal data acquisition and analysis system. The slipknot at the proximal end of the common carotid artery was untied, and real-time blood pressure data of the animal appeared on the software. […] The dosages of IRL1620, BX34, and BX229 were 5 µg/Kg, 42 µg/kg, and 6.6 µg/Kg, respectively.

[6] = tested on: mouse model of tMCAO; assay: Garcia JH scoring in mouse model of tMCAO; type: in vivo, C57/6J mice
Method: Fifty-one male C57/6J mice, aged 10-12 weeks, weighing 25-30g, were housed for at least 2 days prior to the experiment to adapt to the environment (SPF Biotech). A mouse model of tMCAO was established. The mice were anesthetized with isoflurane. Their body temperature was controlled by a thermostatic blanket and monitored and maintained at 37±0.5°C. A middle incision was made in the skin on the mouse skull, the skin was pulled outward, and a bendable microneedle tip was fixed to the surface of the left parietal bone of the mouse skull. A middle incision on the neck was made to separate the right common carotid artery (CCA), external carotid artery (ECA) and internal carotid artery (ICA). According to the method of Longa (Longa et al., 1989), a silicone rubber-coated suture (RWD Life Science, suture end diameter: 0.22 mm-0.23 mm, MSMC23B120PK50) was introduced through an external carotid artery incision surgery and was slowly advanced through the internal carotid artery towards the origin of the middle cerebral artery. To ensure a sustained and successful occlusion of the middle cerebral artery, we monitored local cerebral blood flow of all stroke animals with a laser speckle flowmeter (generally, the blood flow can be reduced by 40-60% after stabilized). The suture was removed 45 min after the insertion for modeling, and the incision was sutured. Afterward, 1 mL of 37°C warm saline was injected subcutaneously, and the mice were placed on a heating pad until recovery. To alleviate pain, the mice were injected subcutaneously with Tilidine after awakening from anesthesia.
Successfully modeled C57 tMCAO mice were randomly assigned into three groups: a normal saline group, a 30µg/Kg BX229-Na administration group, and a 100µg/Kg BX229-Na administration group. Each group was administered once subcutaneously in the neck 4.5 hours after occlusion (D1), and was administered once more at the same sites and at the same time points on D3 and D6. A sham group included 6 animals. 2 mL/kg was administrated subcutaneously in the neck. Garcia JH scoring was made on D7 and D14 after administration. After the completion of the scoring on D14, the mice were euthanized and harvested for infarcted brain tissues, to extract total proteins. Changes in protein markers VEGF-A and BDNF in each experimental group were detected by ELISA. Table 19: Experimental Grouping and Dosing Regimen

[7] = Determination of half-lives of polypeptides (plasma, LC-MS); conditions: C57 BL/6, mouse, plasma, iv
[8] = 30µg/Kg subcutaneously on D1, D3, D6
[9] = tMCAO mice, 30µg/Kg s.c. on D1, D3, D6

| Structure (SMILES) | EC50 [1] | MTD at 24 h [2] | Observations of Animal Status ([3]; intravenous (tail vein) 60 µg/Kg) | Observations of Animal Status ([3]; intravenous (tail vein) 90 µg/Kg) | Observations of Animal Status ([3]; intravenous (tail vein) 120 µg/Kg) | acute toxicity of subcutaneous administration compared with IRL1620 [4] | maximum extent of decrease in blood pressure, of the baseline blood pressure [5] | time to the lowest blood pressure [5] | Maximum percentage of blood pressure reduction relative to baseline blood pressure (n = 3) ([5]; iv) | Time from baseline blood pressure to the lowest blood pressure ([5]; iv) | Garcia JH-15 score on D7 compared with the normal saline group [6, 8] | Garcia JH-15 score on D14 compared with the normal saline group [6, 8] | Garcia JH-15 score on D7 compared with the normal saline group ([6]; 100µg/Kg subcutaneously on D1, D3, D6) | Garcia JH-15 score on D7 compared with the normal saline group [6, 9] | Garcia JH-15 score on D14 compared with the normal saline group [6, 9] | Garcia JH-15 score on D7 compared with the normal saline group ([6]; tMCAO mice, 100µg/Kg s.c. on D1, D3, D6) | Garcia JH-15 score on D14 compared with the normal saline group ([6]; tMCAO mice, 100µg/Kg s.c. on D1, D3, D6, P < 0.05) | total score of the Garcia JH-15 score, higher than in the normal saline group by ([6]; tMCAO mice, D7, 100µg/Kg s.c. on D1, D3, D6) | half-life [7] |
| --- | --- | --- | --- | --- | --- | --- | --- | --- | --- | --- | --- | --- | --- | --- | --- | --- | --- | --- | --- |
| CC[C@H](C)[C@H](NC(=O)[C@H](CC(=O)O)NC(=O)[C@H](CCCCN)NC(=O)[C@H](Cc1c[nH]cn1)NC(=O)[C@H](C)NC(=O)[C@H](Cc1ccccc1)NC(=O)[C@H](Cc1ccc(O)cc1)NC(=O)[C@@H](NC(=O)[C@H](C)NC(=O)[C@H](CCC(=O)O)NC(=O)[C@H](CCC(=O)O)NC(=O)[C@H](CC(=O)O)NC(=O)/C=C/C(=O)O)C(C)C)C(=O)N[C@H](C(=O)NC(Cc1ccc2ccccc2c1)C(=O)O)[C@@H](C)CC (some centres unmarked) [BX-13-2] (Fumaroyl-DEEAVYFAHKDII[ξ2Nal]-OH; C-terminus assumed) | 11.8 nM | – | – | – | – | – | – | – | – | – | – | – | – | – | – | – | – | – | – |
| CCCCCCCCCCCC(=O)N[C@@H](CCC(=O)NCCOCCOCC(=O)NCCCC[C@H](NC(=O)[C@H](Cc1c[nH]cn1)NC(=O)[C@H](C)NC(=O)[C@H](Cc1ccccc1)NC(=O)[C@H](Cc1ccc(O)cc1)NC(=O)[C@@H](NC(=O)[C@H](C)NC(=O)[C@H](CCC(=O)O)NC(=O)[C@H](CCC(=O)O)NC(=O)[C@H](CC(=O)O)NC(=O)/C=C/C(=O)O)C(C)C)C(=O)N[C@@H](CC(=O)O)C(=O)N[C@H](C(=O)N[C@H](C(=O)N[C@@H](Cc1c[nH]c2ccccc12)C(=O)O)[C@@H](C)CC)[C@@H](C)CC)C(=O)O [BX-225-Na] (Fumaroyl-DEEAVYFAHK([AEEA-γGlu-Lauroyl])DIIW-OH) | 134 nM | – | – | – | – | – | – | – | – | – | – | – | – | – | – | – | – | – | – |
| CCCCCCCCCCCC(=O)N[C@@H](CCC(=O)NCCOCCOCC(=O)NCCCC[C@H](NC(=O)[C@H](Cc1c[nH]cn1)NC(=O)[C@H](C)NC(=O)[C@H](Cc1ccccc1)NC(=O)[C@H](Cc1ccc(O)cc1)NC(=O)[C@@H](NC(=O)[C@H](C)NC(=O)[C@H](CCC(=O)O)NC(=O)[C@H](CCC(=O)O)NC(=O)[C@H](CC(=O)O)NC(=O)/C=C/C(=O)O)C(C)C)C(=O)N[C@@H](CC(=O)O)C(=O)N[C@H](C(=O)N[C@H](C(=O)N[C@@H](Cc1c[nH]c2ccccc12)C(=O)O)[C@@H](C)CC)C(C)C)C(=O)O [BX-229] (Fumaroyl-DEEAVYFAHK([AEEA-γGlu-Lauroyl])DVIW-OH) | – | 0.06 mg/kg | No obvious reaction within 1 hour; developed rapid breathing at 1 hour; recovered to normal after 10 minutes | Died at 1 hour after administration; also recorded: Developed rapid breathing at 25 minutes after administration; recovered after 25 minutes; showed no willingness to move; also recorded: Developed rapid breathing and the body turned purple at 1 hour after administration; partially recovered after 30 minutes; also recorded: Developed rapid breathing and diarrhea at 45 minutes after administration; recovered after 25 minutes; also recorded: Developed rapid breathing at 44 minutes after administration; died of convulsions at 52 minutes after administration; also recorded: Developed rapid breathing at 43 minutes after administration; recovered after 30 minutes | Died at 26 minutes after administration; had white discharge in the nasal cavity and developed diarrhea | much lower | 17.0%±2.0% | 20 to 35 min | 17.0%±2.0% | 20 to 30 min | better scores than the normal saline group | better scores than that of the normal saline group | better scores than the normal saline group | better scores | better scores | better scores | significantly different | 1 point | 1.28 h |
